Data from patent publication US12077503B2, “Substituted cyclic amides and their use as herbicides” (FMC CORPORATION, priority 2015, dated 2024).

Assays:
Type in all cases: in vivo
Kochia (Kochia scoparia) [1] = assay: Test A postemergence; settings: postemergence, 0 to 100 scale (0 no effect, 100 complete control)
Text: (§1) Seeds of plant species selected from barnyardgrass (Echinochloa crus-galli), Kochia (Kochia scoparia), ragweed (common ragweed, Ambrosia elatior), ryegrass, Italian (Italian ryegrass, Lolium multiflorum), crabgrass, large (Digitaria sanguinalis), giant foxtail (Setaria faberii), green foxtail (Setaria viridis), morningglory (Ipomoea spp.), pigweed (Amaranthus retroflexus), velvetleaf (Abutilon theophrasti), wheat (Triticum aestivum), and corn (Zea mays) were planted into a blend of loam soil and sand and treated preemergence with a directed soil spray using test chemicals formulated in anon-phytotoxic solvent mixture which included a surfactant.
(§2) At the same time, plants selected from these crop and weed species and also blackgrass (Alopecurus myosuroides), and Galium (catchweed bedstraw, Galium aparine) were planted in pots containing the same blend of loam soil and sand and treated with postemergence applications of test chemicals formulated in the same manner. Plants ranged in height from 2 to 10 cm and were in the one- to two-leaf stage for the postemergence treatment. Treated plants and untreated controls were maintained in a greenhouse for approximately 10 d, after which time all treated plants were compared to untreated controls and visually evaluated for injury. Plant response ratings, summarized in Table A, are based on a 0 to 100 scale where 0 is no effect and 100 is complete control. A dash (-) response means no test result.

[2] = test system: wheat (Triticum aestivum); assay: Test A postemergence; settings: postemergence, 0 to 100 scale (0 no effect, 100 complete control)
Text: as §1, §2

[3] = test system: giant foxtail (Setaria faberii); assay: Test A postemergence; settings: postemergence, 0 to 100 scale (0 no effect, 100 complete control)
Text: as §1, §2

[4] = test system: ryegrass, Italian (Italian ryegrass, Lolium multiflorum); assay: Test A postemergence; settings: postemergence, 0 to 100 scale (0 no effect, 100 complete control)
Text: as §1, §2

[5] = test system: pigweed (Amaranthus retroflexus); assay: Test A postemergence; settings: postemergence, 0 to 100 scale (0 no effect, 100 complete control)
Text: as §1, §2

corn (Zea mays) = assay: Test A postemergence; settings: postemergence, 0 to 100 scale (0 no effect, 100 complete control)
Text: as §1, §2

[6] = test system: Galium (catchweed bedstraw, Galium aparine); assay: Test A postemergence; settings: postemergence, 0 to 100 scale (0 no effect, 100 complete control)
Text: as §1, §2

[7] = test system: barnyardgrass (Echinochloa crus-galli); assay: Test A postemergence; settings: postemergence, 0 to 100 scale (0 no effect, 100 complete control)
Text: as §1, §2

[8] = test system: ragweed (common ragweed, Ambrosia elatior); assay: Test A postemergence; settings: postemergence, 0 to 100 scale (0 no effect, 100 complete control)
Text: as §1, §2

[9] = test system: blackgrass (Alopecurus myosuroides); assay: Test A postemergence; settings: postemergence, 0 to 100 scale (0 no effect, 100 complete control)
Text: as §1, §2

[10] = test system: ducksalad (Heteranthera limosa); assay: Test B flooded paddy test; settings: Flood, 0 to 100 scale where 0 is no effect and 100 is complete control, 13 to 15 d
Procedure: (§3) Plant species in the flooded paddy test selected from rice (Oryra sativa), sedge, umbrella (small-flower umbrella sedge, Cyperus difformis), ducksalad (Heteranthera limosa), and barnyardgrass (Echinochloa crus-galli) were grown to the 2-leaf stage for testing. At time of treatment, test pots were flooded to 3 cm above the soil surface, treated by application of test compounds directly to the paddy water, and then maintained at that water depth for the duration of the test. Treated plants and controls were maintained in a greenhouse for 13 to 15 d, after which time all species were compared to controls and visually evaluated. Plant response ratings, summarized in Table B, are based on a scale of 0 to 100 where 0 is no effect and 100 is complete control. A dash (-) response means no test result.

rice (Oryra sativa) = assay: Test B flooded paddy test; settings: Flood, 0 to 100 scale where 0 is no effect and 100 is complete control, 13 to 15 d
Procedure: as §3

[11] = test system: sedge, umbrella (small-flower umbrella sedge, Cyperus difformis); assay: Test B flooded paddy test; settings: Flood, 0 to 100 scale where 0 is no effect and 100 is complete control, 13 to 15 d
Procedure: as §3

[12] = test system: barnyardgrass (Echinochloa crus-galli); assay: Test B flooded paddy test; settings: Flood, 0 to 100 scale where 0 is no effect and 100 is complete control, 13 to 15 d
Procedure: as §3

Kochia (Kochia scoparia) [13] = assay: Test A preemergence
Text: as §1, §2

[14] = test system: giant foxtail (Setaria faberii); assay: Test A preemergence
Text: as §1, §2

[15] = test system: ryegrass, Italian (Italian ryegrass, Lolium multiflorum); assay: Test A preemergence
Text: as §1, §2

[16] = test system: pigweed (Amaranthus retroflexus); assay: Test A preemergence
Text: as §1, §2

[17] = test system: barnyardgrass (Echinochloa crus-galli); assay: Test A preemergence
Text: as §1, §2

[18] = test system: ragweed (common ragweed, Ambrosia elatior); assay: Test A preemergence
Text: as §1, §2

[19] = 125 g ai/ha, visual rating after approx. 10 d
[20] = 500 g ai/ha, visual injury, approx. 10 d
[21] = 125 g ai/ha, Preemergence, visual injury after approximately 10 d, 0 to 100 scale where 0 is no effect and 100 is complete control
[22] = 500 g ai/ha, preemergence, 0 to 100 scale, 0 = no effect, 100 = complete control
[23] = 125 g ai/ha, visual injury after approximately 10 d
[24] = 125 g ai/ha, preemergence, visual rating after approx. 10 d, 0 to 100 scale where 0 is no effect and 100 is complete control

Cc1cccc(C2CN(C)C(=O)C2C(=O)Nc2ccccc2S(C)(=O)=O)c1 (stereo not drawn) [Compound 668]
Plant response rating, Kochia (Kochia (Kochia scoparia) [1]; [19]): 20
Plant response rating, Kochia (Kochia (Kochia scoparia) [1]; [20]): 20
Plant response rating, Wheat [2, 19]: 20
Plant response rating, Wheat [2, 20]: 60
Plant response rating, Foxtail, Giant [3, 19]: 90
Plant response rating, Foxtail, Giant [3, 20]: 90
Plant response rating, Ryegrass, Italian [4, 19]: 0
Plant response rating, Ryegrass, Italian [4, 20]: 70
Plant response rating, Pigweed [5, 19]: 0
Plant response rating, Pigweed [5, 20]: 0
Plant response rating, Corn (corn (Zea mays); [19]): 20
Plant response rating, Corn (corn (Zea mays); [20]): 80
Plant response rating, Galium [6, 19]: 20
Plant response rating, Galium [6, 20]: 70
Plant response rating, Barnyardgrass [7, 19]: 90
Plant response rating, Barnyardgrass [7, 20]: 90
Plant response rating, Ragweed [8, 19]: 0
Plant response rating, Ragweed [8, 20]: 0
Plant response rating, Blackgrass [9, 19]: 60
Plant response rating, Blackgrass [9, 20]: 70
Plant response rating, Ducksalad ([10]; 250 g ai/ha): 98
Plant response rating, Rice (rice (Oryra sativa); 250 g ai/ha): 0
Plant response rating, Sedge, Umbrella ([11]; 250 g ai/ha): 0
Plant response rating, Barnyardgrass ([12]; 250 g ai/ha): 70
Plant response rating, Kochia (Kochia (Kochia scoparia) [13]; [21]): 20
Plant response rating, Kochia (Kochia (Kochia scoparia) [13]; [22]): 70
Plant response rating, Foxtail, Giant [14, 21]: 90
Plant response rating, Foxtail, Giant [14, 22]: 100
Plant response rating, Ryegrass, Italian [15, 21]: 0
Plant response rating, Ryegrass, Italian [15, 22]: 0
Plant response rating, Pigweed [16, 21]: 20
Plant response rating, Pigweed [16, 22]: 50
Plant response rating, Barnyardgrass [17, 21]: 90
Plant response rating, Barnyardgrass [17, 22]: 90
Plant response rating, Ragweed [18, 21]: 0
Plant response rating, Ragweed [18, 22]: 40

COC(=O)c1ccccc1NC(=O)C1C(=O)NCC1c1cccc(C(F)(F)F)c1 (racemic) [Compound 705]
Plant response rating, Kochia (Kochia (Kochia scoparia) [1]; [23]): 0
Plant response rating, Kochia (Kochia (Kochia scoparia) [1]; [20]): 0
Plant response rating, Wheat [2, 23]: 0
Plant response rating, Wheat [2, 20]: 0
Plant response rating, Foxtail, Giant [3, 23]: 0
Plant response rating, Foxtail, Giant [3, 20]: 0
Plant response rating, Ryegrass, Italian [4, 23]: 0
Plant response rating, Ryegrass, Italian [4, 20]: 0
Plant response rating, Pigweed [5, 23]: 0
Plant response rating, Pigweed [5, 20]: 0
Plant response rating, Corn (corn (Zea mays); [23]): 0
Plant response rating, Corn (corn (Zea mays); [20]): 0
Plant response rating, Galium [6, 23]: 0
Plant response rating, Galium [6, 20]: 0
Plant response rating, Barnyardgrass [7, 23]: 0
Plant response rating, Barnyardgrass [7, 20]: 0
Plant response rating, Ragweed [8, 23]: 0
Plant response rating, Ragweed [8, 20]: 0
Plant response rating, Blackgrass [9, 23]: 0
Plant response rating, Blackgrass [9, 20]: 0
Plant response rating, Ducksalad ([10]; 500 g ai/ha): 0
Plant response rating, Rice (rice (Oryra sativa); 500 g ai/ha): 0
Plant response rating, Sedge, Umbrella ([11]; 500 g ai/ha): 0
Plant response rating, Barnyardgrass ([12]; 500 g ai/ha): 0
Plant response rating, Kochia (Kochia (Kochia scoparia) [13]; [24]): 0
Plant response rating, Kochia (Kochia (Kochia scoparia) [13]; [22]): 0
Plant response rating, Foxtail, Giant [14, 24]: 0
Plant response rating, Foxtail, Giant [14, 22]: 0
Plant response rating, Ryegrass, Italian [15, 24]: 0
Plant response rating, Ryegrass, Italian [15, 22]: 0
Plant response rating, Pigweed [16, 24]: 0
Plant response rating, Pigweed [16, 22]: 0
Plant response rating, Barnyardgrass [17, 24]: 0
Plant response rating, Barnyardgrass [17, 22]: 0
Plant response rating, Ragweed [18, 24]: 0
Plant response rating, Ragweed [18, 22]: 0
